# Reference: patent US20250115654A1, “PHARMACEUTICAL COMPOSITION OF GLP-1 RECEPTOR AND GIP RECEPTOR DUAL AGONIST, AND USE THEREOF” (FUJIAN SHENGDI PHARMACEUTICAL CO., LTD., priority 2021, published 2025)
# Numbered stars: 1 amine (or outer) side, 2 acyl side, 3 side chain; on linkers, the order of the positions; unused ones are H or OH. Square brackets hold non-standard residues; d marks the D form. Side chains are listed from the residue outwards. Peptide text beside a SMILES is read from it. * marks the point of attachment. C20 diacid = O=C(O)CCCCCCCCCCCCCCCCCCC(=O)*; γGlu = O=C(O)[C@H](CCC(=O)[*:2])N[*:1]; AEEA = NCCOCCOCC(=O)O; Aib = CC(C)(N)C(=O)O
# System: DIO mice
# Assay: Food intake of DIO (diet-induced obesity) mice
# Assay type: in vivo, C57BL/6 mice
# Protocol: High-fat food-induced-obesity male C57BL/6 mice (weighing 35-55 g, aged 10-12 weeks, purchased from Shanghai Jiesijie Laboratory Animal Co., Ltd.) were tested. […] According to the experimental design, the body weight of each mouse was measured and recorded on day 0, day 3, day 6, and so on to day 27, the average body weight of each group of mice was calculated, and body weight change curves were plotted by taking the body weight on the first day as the standard. At the end, the fat and other visceral organs of each part of the mice were taken out and weighed, and the viscera/brain ratio for fat in each part of each mouse was calculated. The effect of the drug on the fat was determined by comparing the change in the viscera/brain ratio for fat of different parts of each group of mice.
# The food intake of mice in each group was measured daily during the experiment.
structure (smiles),measurement,setting,value
CC[C@H](C)[C@H](NC(=O)[C@H](CCCCN)NC(=O)[C@H](CCC(=O)O)NC(=O)[C@H](CCCCNC(=O)COCCOCCNC(=O)COCCOCCNC(=O)CC[C@H](NC(=O)CCCCCCCCCCCCCCCCCCC(=O)O)C(=O)O)NC(=O)[C@H](Cc1ccc(O)cc1)NC(=O)[C@@H](NC(=O)[C@H](CO)NC(=O)[C@H](Cc1ccc(O)cc1)NC(=O)[C@H](CC(=O)O)NC(=O)[C@H](CO)NC(=O)[C@@H](NC(=O)[C@H](Cc1ccccc1)NC(=O)[C@@H](NC(=O)CNC(=O)[C@H](CCC(=O)O)NC(=O)C(C)(C)NC(=O)[C@@H](N)Cc1ccc(O)cc1)[C@@H](C)O)[C@@H](C)O)[C@@H](C)CC)C(=O)N[C@@H](C)C(=O)N[C@@H](C)C(=O)N[C@@H](CCC(N)=O)C(=O)N[C@@H](CCC(=O)O)C(=O)N[C@@H](Cc1ccccc1)C(=O)N[C@H](C(=O)N[C@@H](CC(N)=O)C(=O)N[C@@H](Cc1c[nH]c2ccccc12)C(=O)N[C@@H](CC(C)C)C(=O)N[C@@H](CC(C)C)C(=O)N[C@@H](C)C(=O)NCC(=O)NCC(=O)N1CCC[C@H]1C(=O)N[C@@H](CO)C(=O)N[C@@H](CO)C(=O)NCC(=O)N[C@@H](C)C(=O)N1CCC[C@H]1C(=O)N1CCC[C@H]1C(=O)N1CCC[C@H]1C(=O)N[C@@H](CO)C(N)=O)C(C)C [Compound 18#] (H-Y[Aib]EGTFTSDYSIYK([AEEA-AEEA-γGlu-C20 diacid])EKIAAQEFVNWLLAGGPSSGAPPPS-NH2),cumulative food intake,"3 nmol/kg, 28 days after the administration",58.2 g
same,daily food intake ration,"3 nmol/kg, day 1 after administration",0.6 ± 0.1 g
same,daily food intake ration,"3 nmol/kg, day 1 after administration, listed as 18#",0.6 g
same,daily food intake ration,"3 nmol/kg, day 2 after administration",1.3 ± 0.5 g
same,daily food intake ration,"3 nmol/kg, day 3 after administration",2 ± 0.5 g
same,daily food intake ration,"3 nmol/kg, day 4 after administration",1.1 ± 0.4 g
same,daily food intake ration,"3 nmol/kg, day 5 after administration",2.2 ± 1.3 g
same,daily food intake ration,"3 nmol/kg, day 6 after administration",2.1 ± 1.1 g
same,daily food intake ration,"3 nmol/kg, day 7 after administration",1.1 ± 0.6 g
same,daily food intake ration,"3 nmol/kg, day 8 after administration",1.6 ± 0.6 g
same,daily food intake ration,"3 nmol/kg, day 9 after administration",2.5 ± 0.9 g
same,daily food intake ration,"3 nmol/kg, day 10 after administration",1.3 ± 0.6 g
same,daily food intake ration,"3 nmol/kg, day 11 after administration",2 ± 0.3 g
same,daily food intake ration,"3 nmol/kg, day 12 after administration",3 ± 1 g
same,daily food intake ration,"3 nmol/kg, day 13 after administration",1.8 ± 1 g
same,daily food intake ration,"3 nmol/kg, day 14 after administration",2.3 ± 1 g
same,daily food intake ration,"3 nmol/kg, day 15 after administration",2.9 ± 0.7 g
same,daily food intake ration,"3 nmol/kg, day 16 after administration",1.5 ± 0.7 g
same,daily food intake ration,"3 nmol/kg, day 17 after administration",2.2 ± 0.5 g
same,daily food intake ration,"3 nmol/kg, day 18 after administration",2.7 ± 0.3 g
same,daily food intake ration,"3 nmol/kg, day 19 after administration",1.7 ± 0.5 g
same,daily food intake ration,"3 nmol/kg, day 20 after administration",2.2 ± 0.5 g
same,daily food intake ration,"3 nmol/kg, day 21 after administration",3.4 ± 0.4 g
same,daily food intake ration,"3 nmol/kg, day 22 after administration",1.8 ± 0.5 g
same,daily food intake ration,"3 nmol/kg, day 23 after administration",2.6 ± 0.4 g
same,daily food intake ration,"3 nmol/kg, day 24 after administration",2.9 ± 0.5 g
same,daily food intake ration,"3 nmol/kg, day 25 after administration",1.8 ± 0.8 g
same,daily food intake ration,"3 nmol/kg, day 26 after administration",2.5 ± 0.9 g
same,daily food intake ration,"3 nmol/kg, day 27 after administration",3.9 ± 0.5 g
same,daily food intake ration,"3 nmol/kg, day 28 after administration",1.3 ± 0.6 g
same,cumulative food intake,"3 nmol/kg, within 5 days after the administration",7.2 g
same,cumulative food intake,"10 nmol/kg, 28 days after the administration",46.8 g
same,daily food intake ration,"10 nmol/kg, day 1 after administration",0.3 ± 0.2 g
same,daily food intake ration,"10 nmol/kg, day 1 after administration, listed as 18#",0.3 g
same,daily food intake ration,"10 nmol/kg, day 2 after administration",0.6 ± 0.6 g
same,daily food intake ration,"10 nmol/kg, day 3 after administration",1.1 ± 0.7 g
same,daily food intake ration,"10 nmol/kg, day 4 after administration",0.7 ± 0.5 g
same,daily food intake ration,"10 nmol/kg, day 5 after administration",1.1 ± 0.5 g
same,daily food intake ration,"10 nmol/kg, day 6 after administration",1.5 ± 0.8 g
same,daily food intake ration,"10 nmol/kg, day 7 after administration",0.8 ± 0.4 g
same,daily food intake ration,"10 nmol/kg, day 8 after administration",1.1 ± 0.7 g
same,daily food intake ration,"10 nmol/kg, day 9 after administration",2 ± 0.6 g
same,daily food intake ration,"10 nmol/kg, day 10 after administration",0.9 ± 0.4 g
same,daily food intake ration,"10 nmol/kg, day 11 after administration",1.8 ± 0.8 g
same,daily food intake ration,"10 nmol/kg, day 12 after administration",2.4 ± 0.6 g
same,daily food intake ration,"10 nmol/kg, day 13 after administration",0.9 ± 0.4 g
same,daily food intake ration,"10 nmol/kg, day 14 after administration",1.7 ± 0.7 g
same,daily food intake ration,"10 nmol/kg, day 15 after administration",3 ± 0.9 g
same,daily food intake ration,"10 nmol/kg, day 16 after administration",1.2 ± 1 g
same,daily food intake ration,"10 nmol/kg, day 17 after administration",2.1 ± 0.9 g
same,daily food intake ration,"10 nmol/kg, day 18 after administration",2.9 ± 0.8 g
same,daily food intake ration,"10 nmol/kg, day 19 after administration",1.3 ± 0.5 g
same,daily food intake ration,"10 nmol/kg, day 20 after administration",2 ± 0.5 g
same,daily food intake ration,"10 nmol/kg, day 21 after administration",3.2 ± 0.6 g
same,daily food intake ration,"10 nmol/kg, day 22 after administration",1 ± 0.4 g
same,daily food intake ration,"10 nmol/kg, day 23 after administration",2.3 ± 0.5 g
same,daily food intake ration,"10 nmol/kg, day 24 after administration",2.5 ± 0.6 g
same,daily food intake ration,"10 nmol/kg, day 25 after administration",1.6 ± 1.2 g
same,daily food intake ration,"10 nmol/kg, day 26 after administration",2.2 ± 0.8 g
same,daily food intake ration,"10 nmol/kg, day 27 after administration",3.6 ± 1^ g
same,daily food intake ration,"10 nmol/kg, day 28 after administration",1 ± 0.5 g
same,cumulative food intake,"10 nmol/kg, within 5 days after the administration",3.9 g
